From the Kinase Knowledgebase extract (Sharma et al. 2016)

Each molecule was assayed against MAPK14;MAPK11;MAPK12 (human) (UniProt Q16539) (assay: Inhibition of p38 Kinase Activity).

IC50 | Compound
< 10000 nM | CN(CCN(C)c1nc(NCCc2ccccc2)nc(Nc2ccc3ncsc3c2)n1)C(=O)CCC(=O)O
< 1000 nM | Cc1ccc(-c2n[nH]c(=O)[nH]2)cc1Nc1nc(N(C)CC(C)(C)C)nc(N2CCCN(C)CC2)n1
< 1000 nM | CCC(C)N1CC[C@@H](Nc2nc(Nc3cc(C(N)=O)ccc3C)nc(N(C)CC(C)C)n2)C1 (stereo not given in full)
< 10000 nM | Cc1ccccc1NC(=S)N(C)CCCN(C)c1nc(NCC(C)c2ccccc2)nc(Nc2ccc3ncsc3c2)n1 (stereo not given)
< 1000 nM | Cc1ccc(C(N)=O)cc1Nc1nc(N[C@H]2CCNC2)nc(SCC(C)C)n1
< 1000 nM | Cc1ccc(C(N)=O)cc1Nc1nc(N[C@H]2CCN(Cc3ccc(O)cc3)C2)nc(N(C)CC(C)C)n1
< 1000 nM | Cc1ccc(C(N)=O)cc1Nc1nc(NCCc2ccc(Cl)cc2)nc(N[C@H]2CCNC2)n1
< 10000 nM | COCC(=O)N1CCN(c2nc(NCC(C)c3ccccc3)nc(Nc3ccc4ncsc4c3)n2)CC1 (stereo not given)
< 1000 nM | Cc1ccc(-c2nn(C)c(=O)[nH]2)cc1Nc1nc(N[C@@H]2CCNC2)nc(N(C)CC(C)(C)C)n1
< 1000 nM | Cc1ccc(C(N)=O)cc1Nc1nc(NC[C@H]2CCCN2)nc(N(C)CC(C)(C)C)n1
< 1000 nM | Cc1ccc(C(N)=O)cc1Nc1nc(N[C@H]2CCCNC2)nc(N(C)CC(C)(C)C)n1
< 1000 nM | Cc1ccc(C(N)=O)cc1Nc1nc(N[C@H]2CCN(Cc3ccc(F)cc3)C2)nc(N(C)CC(C)C)n1
< 1000 nM | Cc1ccc(C(N)=O)cc1Nc1nc(N[C@H]2CCNC2)nc(N(C)CC(C)C)n1
< 1000 nM | Cc1ccc(S(N)(=O)=O)cc1Nc1nc(N[C@H]2CCNC2)nc(N(C)CC(C)(C)C)n1
< 10000 nM | CC(=O)N(C)CCCN(C)c1nc(NCC(C)c2ccccc2)nc(Nc2ccc3ncsc3c2)n1 (stereo not given)
< 1000 nM | CCC[C@@H]1C[C@@H](Nc2nc(Nc3cc(C(N)=O)ccc3C)nc(N(C)CC(C)(C)C)n2)CN1
< 1000 nM | CCCNC(=O)N1CC[C@@H](Nc2nc(Nc3cc(C(=O)NOC)ccc3C)nc(N(C)CC(C)(C)C)n2)C1
< 1000 nM | Cc1ccc(C(N)=O)cc1Nc1nc(NC[C@@H]2CC[C@H]3C[C@H]2C3(C)C)nc(NC2CCNCC2)n1

IC50 | Compound
< 1000 nM | CONC(=O)c1ccc(C)c(Nc2nc(NCc3cccc(F)c3)nc(N(C)CC(C)(C)C)n2)c1
< 10000 nM | CC(CNc1nc(Nc2ccc3ncsc3c2)nc(N2CC3CC2CN3C(=N)N)n1)c1ccccc1 (stereo not given)
< 10000 nM | COCC(=O)N(C)CCCN(C)c1nc(NCC(C)c2ccccc2)nc(Nc2ccc3ncsc3c2)n1 (stereo not given)
< 30000 nM | CONC(=O)c1ccc(C)c(Oc2nc(N[C@@H]3CCNC3)nc(N(C)CC(C)(C)C)n2)c1
< 10000 nM | CC(Cc1ccccc1)Nc1nc(Nc2ccc3ncsc3c2)nc(N2CCNCC2)n1 (stereo not given)
< 1000 nM | Cc1c(Cl)cc(C(N)=O)cc1Nc1nc(N[C@H]2CCNC2)nc(N(C)CC(C)(C)C)n1
< 1000 nM | Cc1ccc(C(=O)Nc2ccccc2)cc1Nc1nc(N[C@H]2CCNC2)nc(N(C)CC(C)C)n1
< 10000 nM | CC1(C)[C@H]2CC[C@H](CNc3nc(Cl)nc(Nc4ccc5ncsc5c4)n3)[C@@H]1C2
< 10000 nM | Clc1nc(Nc2ccc3ncsc3c2)nc(N2CCC3CCCCC3C2)n1 (stereo not given)
< 30000 nM | CNC(=O)c1ccc(C)c(Sc2nc(N[C@@H]3CCNC3)nc(N(C)CC(C)(C)C)n2)c1
< 1000 nM | CCNC(=O)c1ccc(C)c(Nc2nc(NC[C@H]3CCCN3)nc(N(C)CC(C)(C)C)n2)c1
< 1000 nM | CCN1CC[C@@H](Nc2nc(Nc3cc(C(=O)NOC)ccc3C)nc(N(C)CC(C)(C)C)n2)C1
< 1000 nM | Cc1ccc(CC2C[C@@H](Nc3nc(Nc4cc(C(N)=O)ccc4C)nc(N(C)CC(C)C)n3)CN2)cc1 (stereo not given in full)
< 1000 nM | CNC(=O)c1ccc(C)c(Nc2nc(N[C@H]3CCN(C(C)C)C3)nc(N(C)CC(C)(C)C)n2)c1
< 1000 nM | Cc1ccc(-c2n[nH]c(=O)[nH]2)cc1Nc1nc(N[C@@H]2CCNC2)nc(N(C)CC(C)(C)C)n1
< 1000 nM | COC(=O)Nc1ccc(C)c(Nc2nc(N[C@H]3CCNC3)nc(N(C)CC(C)(C)C)n2)c1
< 10000 nM | CC(=O)N1CCN(c2nc(NC[C@@H]3CC[C@H]4C[C@@H]3C4(C)C)nc(Nc3ccc4ncsc4c3)n2)CC1
